According to US9961848B2, “Soybean event 127 and methods related thereto” (EMPRESA BRASILEIRA DE PESQUISA AGROPECUARIA—EMBRAPA, priority 2009, dated 2018):

Legend:
Assay type in all cases: in vivo
[1] = tested on: RCHBR = Richardia brasiliensis; assay: Field weed control, early post-emergence application; settings: gai/ha Imazapyr 72, Imazapyr + imazapic 70, Glyphosate 540
[2] = tested on: SIDRH = Sida rombifolia; assay: as above; settings: gai/ha Imazapyr 72, Imazapyr + imazapic 70, Glyphosate 540
[3] = tested on: glyphosate resistant corn; assay: Greenhouse injury rate, preemergence application; settings: 14 DAT
Procedure: (§1) Greenhouse studies were conducted to determine whether imidazolinone herbicides could be used in the control of undesired glyphosate tolerant weeds and crops growing in a cultivated area. […] Plants were maintained in a greenhouse with overhead watering.
(§2) Postemergence sprays were conducted at the 2-true leaf stage for corn and soybean and at the 9-true leaf stage for horseweed. […] The percent overall injury rate was visually determined 14 days after treatment (DAT) and 25 days after treatment (DAT). […] The results of the postemergence tests are summarized in Table 20 and the results of the pre-emergence study are summarized in Table 21. Results are provided as averages of the 5 individual plants.

[4] = tested on: glyphosate resistant horseweed; assay: Greenhouse injury rate, preemergence application; settings: 25 DAT
Procedure: as §1, §2

[5] = tested on: glyphosate resistant soybean; assay: Greenhouse injury rate, preemergence application; settings: 14 DAT
Procedure: as §1, §2

[6] = tested on: glyphosate resistant corn; assay: Greenhouse injury rate, postemergence application; settings: 14 DAT
Procedure: as §1, §2

[7] = tested on: glyphosate resistant horseweed; assay: Greenhouse injury rate, postemergence application
Procedure: as §1, §2

[8] = tested on: glyphosate resistant soybean; assay: Greenhouse injury rate, postemergence application; settings: 14 DAT
Procedure: as §1, §2

[9] = tested on: CYPRO = Cyperus rotundus; assay: Field weed control, early post-emergence application; settings: gai/ha Imazapyr 72, Imazapyr + imazapic 70, Glyphosate 540
[10] = tested on: BOILF = Spermacoce latifolia; assay: as above; settings: gai/ha Imazapyr 72, Imazapyr + imazapic 70, Glyphosate 540
[11] = tested on: EPHHL = Euphorbia heterophylla; assay: as above; settings: gai/ha Imazapyr 72, Imazapyr + imazapic 70, Glyphosate 540
[12] = tested on: IPOGR = Ipomoea grandifolia; assay: as above; settings: gai/ha Imazapyr 72, Imazapyr + imazapic 70, Glyphosate 540
[13] = tested on: COMBE = Commelina benghalensis; assay: as above; settings: gai/ha Imazapyr 72, Imazapyr + imazapic 70, Glyphosate 540
[14] = tested on: EPHHL = Euphorbia heterophylla; assay: Field weed control, burn down application; settings: burn down 5 days before planting, g ai/ha Glyphosate 1080, Imazapic 70, Imazapic + imazapyr 70
Source text: (§3) All the procedures from planting to harvest were the same for all three locations. The herbicides were applied at burn down five days before the soybean planting.
(§4) A completely randomized block design with three replications was used.
(§5) Imidazolinone-tolerant soybean derived from event 127 was planted 5 cm deep at population of 380,000 seeds/ha in 50 cm row spacing. The imidazolinones herbicides were applied with a nonionic adjuvant, Dash, at 0.25% v/v. A CO^2 backpack sprayer with 80015 low pressure nozzles delivering 170 l/ha at 190 kpa was used for all herbicide applications (Table 18).
(§6) Crop injury was assessed 15 and 30 days after planting (DAP) based on a 0 to 100 scale where 0 is no injury and 100 is crop death. Herbicide efficacy was assessed at 15, 30 and 60 DAP based on a 0 to 100 scale, where 0 is no control and 100 is total control.

[15] = tested on: IPOGR = Ipomoea grandifolia; assay: Field weed control, burn down application; settings: burn down 5 days before planting, g ai/ha Glyphosate 1080, Imazapic 70, Imazapic + imazapyr 70
Source text: as §3, §4, §5, §6

[16] = tested on: BIDPI = Bidens pilosa; assay: Field weed control, burn down application; settings: burn down 5 days before planting, g ai/ha Glyphosate 1080, Imazapic 70, Imazapic + imazapyr 70
Source text: as §3, §4, §5, §6

[17] = tested on: GASPA = Galinsoga parviflora; assay: Field weed control, burn down application; settings: burn down 5 days before planting, g ai/ha Glyphosate 1080, Imazapic 70, Imazapic + imazapyr 70
Source text: as §3, §4, §5, §6

[18] = tested on: COMBE = Commelina benghalensis; assay: Field weed control, burn down application; settings: burn down 5 days before planting, g ai/ha Glyphosate 1080, Imazapic 70, Imazapic + imazapyr 70
Source text: as §3, §4, §5, §6

[19] = tested on: BRAPL = Brachiaria plantaginea; assay: Field weed control, burn down application; settings: burn down 5 days before planting, g ai/ha Glyphosate 1080, Imazapic 70, Imazapic + imazapyr 70
Source text: as §3, §4, §5, §6

[20] = tested on: DIGHO = Digitaria horizontalis; assay: Field weed control, burn down application; settings: burn down 5 days before planting, g ai/ha Glyphosate 1080, Imazapic 70, Imazapic + imazapyr 70
Source text: as §3, §4, §5, §6

[21] = tested on: CYPRO = Cyperus rotundus; assay: Field weed control, burn down application; settings: burn down 5 days before planting, g ai/ha Glyphosate 1080, Imazapic 70, Imazapic + imazapyr 70
Source text: as §3, §4, §5, §6

Structure (SMILES): CC(C)C1(C)N=C(c2ncccc2C(=O)O)NC1=O (stereo not drawn) [imazapyr]
- Efficacy ([1]; 15 DAT): 86%
- Efficacy ([1]; 30 DAT): 83%
- Efficacy ([1]; 60 DAT): 77%
- Efficacy ([2]; 15 DAT): 94%
- Efficacy ([2]; 30 DAT): 87%
- Efficacy ([2]; 60 DAT): 81%
- Average Overall Injury (%) ([3]; 20 g ai/ha): 37%
- Average Overall Injury (%) ([3]; 40 g ai/ha): 47%
- Average Overall Injury (%) ([3]; 80 g ai/ha): 65%
- Average Overall Injury (%) ([3]; 120 g ai/ha): 81%
- Average Overall Injury (%) ([3]; 240 g ai/ha): 91%
- Average Overall Injury (%) ([4]; 20 g ai/ha): 46%
- Average Overall Injury (%) ([4]; 40 g ai/ha): 63%
- Average Overall Injury (%) ([4]; 80 g ai/ha): 84%
- Average Overall Injury (%) ([4]; 120 g ai/ha): 96%
- Average Overall Injury (%) ([4]; 240 g ai/ha): 88%
- Average Overall Injury (%) ([5]; 20 g ai/ha): 41%
- Average Overall Injury (%) ([5]; 40 g ai/ha): 43%
- Average Overall Injury (%) ([5]; 80 g ai/ha): 66%
- Average Overall Injury (%) ([5]; 120 g ai/ha): 83%
- Average Overall Injury (%) ([5]; 240 g ai/ha): 87%
- Average Overall Injury (%) ([6]; 20 g ai/ha): 96%
- Average Overall Injury (%) ([6]; 40 g ai/ha): 98%
- Average Overall Injury (%) ([6]; 80 g ai/ha): 99%
- Average Overall Injury (%) ([6]; 120 g ai/ha): 100%
- Average Overall Injury (%) ([6]; 240 g ai/ha): 100%
- Average Overall Injury (%) ([7]; 14 DAT, 20 g ai/ha): 70%
- Average Overall Injury (%) ([7]; 14 DAT, 40 g ai/ha): 79%
- Average Overall Injury (%) ([7]; 14 DAT, 80 g ai/ha): 90%
- Average Overall Injury (%) ([7]; 14 DAT, 120 g ai/ha): 96%
- Average Overall Injury (%) ([7]; 14 DAT, 240 g ai/ha): 97%
- Average Overall Injury (%) ([7]; 25 DAT, 20 g ai/ha): 44%
- Average Overall Injury (%) ([7]; 25 DAT, 40 g ai/ha): 73%
- Average Overall Injury (%) ([7]; 25 DAT, 80 g ai/ha): 97%
- Average Overall Injury (%) ([7]; 25 DAT, 120 g ai/ha): 99%
- Average Overall Injury (%) ([7]; 25 DAT, 240 g ai/ha): 99%
- Average Overall Injury (%) ([8]; 20 g ai/ha): 75%
- Average Overall Injury (%) ([8]; 40 g ai/ha): 96%
- Average Overall Injury (%) ([8]; 80 g ai/ha): 97%
- Average Overall Injury (%) ([8]; 120 g ai/ha): 98%
- Average Overall Injury (%) ([8]; 240 g ai/ha): 99%
- Efficacy ([9]; 15 DAT): 95%
- Efficacy ([9]; 30 DAT): 87%
- Efficacy ([9]; 60 DAT): 81%
- Efficacy ([10]; 15 DAT): 88%
- Efficacy ([10]; 30 DAT): 83%
- Efficacy ([10]; 60 DAT): 75%
- Efficacy ([11]; 15 DAT): 92%
- Efficacy ([11]; 30 DAT): 85%
- Efficacy ([11]; 60 DAT): 83%
- Efficacy ([12]; 15 DAT): 96%
- Efficacy ([12]; 30 DAT): 91%
- Efficacy ([12]; 60 DAT): 85%
- Efficacy ([13]; 15 DAT): 93%
- Efficacy ([13]; 30 DAT): 87%
- Efficacy ([13]; 60 DAT): 80%

Structure (SMILES): O=C(O)CNCP(=O)(O)O [Glyphosate, glyphosate]
- Efficacy ([1]; 15 DAT): 78%
- Efficacy ([1]; 30 DAT): 57%
- Efficacy (%) ([14]; 30 DAT): 15%
- Efficacy (%) ([14]; 60 DAT): 7%
- Efficacy (%) ([15]; 30 DAT): 23%
- Efficacy (%) ([15]; 60 DAT): 15%
- Efficacy ([2]; 15 DAT): 82%
- Efficacy ([2]; 30 DAT): 77%
- Efficacy ([2]; 60 DAT): 70%
- Average Overall Injury (%) ([3]; 774 g ae/ha): 0%
- Average Overall Injury (%) ([4]; 774 g ae/ha): 0%
- Average Overall Injury (%) ([5]; 774 g ae/ha): 0%
- Average Overall Injury (%) ([6]; 774 g ae/ha): 1%
- Average Overall Injury (%) ([7]; 14 DAT, 774 g ae/ha): 34%
- Average Overall Injury (%) ([7]; 25 DAT, 774 g ae/ha): 16%
- Average Overall Injury (%) ([8]; 774 g ae/ha): 1%
- Efficacy (%) ([16]; 30 DAT): 25%
- Efficacy (%) ([16]; 60 DAT): 21%
- Efficacy ([10]; 15 DAT): 82%
- Efficacy ([10]; 30 DAT): 75%
- Efficacy ([10]; 60 DAT): 68%
- Efficacy (%) ([17]; 30 DAT): 19%
- Efficacy (%) ([17]; 60 DAT): 12%
- Efficacy ([11]; 15 DAT): 85%
- Efficacy ([11]; 30 DAT): 77%
- Efficacy ([11]; 60 DAT): 72%
- Efficacy (%) ([18]; 30 DAT): 38%
- Efficacy (%) ([18]; 60 DAT): 22%
- Efficacy ([12]; 15 DAT): 90%
- Efficacy ([12]; 30 DAT): 87%
- Efficacy ([12]; 60 DAT): 73%
- Efficacy (%) ([19]; 60 DAT): 25%
- Efficacy (%) ([20]; 30 DAT): 60%
- Efficacy (%) ([20]; 60 DAT): 41%
- Efficacy ([13]; 15 DAT): 70%
- Efficacy ([13]; 30 DAT): 61%
- Efficacy ([13]; 60 DAT): 50%

Structure (SMILES): Cc1cnc(C2=NC(=O)C(C)(C(C)C)N2)c(C(=O)O)c1 (stereo not drawn) [Imazapic, imazapic]
- Efficacy (%) ([14]; 30 DAT): 98%
- Efficacy (%) ([14]; 60 DAT): 86%
- Efficacy (%) ([15]; 30 DAT): 75%
- Efficacy (%) ([15]; 60 DAT): 73%
- Efficacy (%) ([21]; 30 DAT): 88%
- Efficacy (%) ([21]; 60 DAT): 76%
- Average Overall Injury (%) ([3]; 20 g ai/ha): 32%
- Average Overall Injury (%) ([3]; 40 g ai/ha): 38%
- Average Overall Injury (%) ([3]; 80 g ai/ha): 67%
- Average Overall Injury (%) ([3]; 160 g ai/ha): 86%
- Average Overall Injury (%) ([3]; 240 g ai/ha): 90%
- Average Overall Injury (%) ([4]; 20 g ai/ha): 65%
- Average Overall Injury (%) ([4]; 40 g ai/ha): 90%
- Average Overall Injury (%) ([4]; 80 g ai/ha): 99%
- Average Overall Injury (%) ([4]; 160 g ai/ha): 99%
- Average Overall Injury (%) ([4]; 240 g ai/ha): 99%
- Average Overall Injury (%) ([5]; 20 g ai/ha): 12%
- Average Overall Injury (%) ([5]; 40 g ai/ha): 39%
- Average Overall Injury (%) ([5]; 80 g ai/ha): 60%
- Average Overall Injury (%) ([5]; 160 g ai/ha): 70%
- Average Overall Injury (%) ([5]; 240 g ai/ha): 81%
- Average Overall Injury (%) ([6]; 20 g ai/ha): 83%
- Average Overall Injury (%) ([6]; 40 g ai/ha): 87%
- Average Overall Injury (%) ([6]; 80 g ai/ha): 93%
- Average Overall Injury (%) ([6]; 160 g ai/ha): 99%
- Average Overall Injury (%) ([6]; 240 g ai/ha): 99%
- Average Overall Injury (%) ([7]; 14 DAT, 20 g ai/ha): 56%
- Average Overall Injury (%) ([7]; 14 DAT, 40 g ai/ha): 59%
- Average Overall Injury (%) ([7]; 14 DAT, 80 g ai/ha): 80%
- Average Overall Injury (%) ([7]; 14 DAT, 160 g ai/ha): 92%
- Average Overall Injury (%) ([7]; 14 DAT, 240 g ai/ha): 94%
- Average Overall Injury (%) ([7]; 25 DAT, 20 g ai/ha): 27%
- Average Overall Injury (%) ([7]; 25 DAT, 40 g ai/ha): 28%
- Average Overall Injury (%) ([7]; 25 DAT, 80 g ai/ha): 69%
- Average Overall Injury (%) ([7]; 25 DAT, 160 g ai/ha): 77%
- Average Overall Injury (%) ([7]; 25 DAT, 240 g ai/ha): 88%
- Average Overall Injury (%) ([8]; 20 g ai/ha): 35%
- Average Overall Injury (%) ([8]; 40 g ai/ha): 61%
- Average Overall Injury (%) ([8]; 80 g ai/ha): 71%
- Average Overall Injury (%) ([8]; 160 g ai/ha): 87%
- Average Overall Injury (%) ([8]; 240 g ai/ha): 96%
- Efficacy (%) ([16]; 30 DAT): 79%
- Efficacy (%) ([16]; 60 DAT): 73%
- Efficacy (%) ([17]; 30 DAT): 84%
- Efficacy (%) ([17]; 60 DAT): 78%
- Efficacy (%) ([18]; 30 DAT): 75%
- Efficacy (%) ([18]; 60 DAT): 64%
- Efficacy (%) ([19]; 30 DAT): 85%
- Efficacy (%) ([19]; 60 DAT): 79%
- Efficacy (%) ([20]; 30 DAT): 95%
- Efficacy (%) ([20]; 60 DAT): 86%
